Laboratory results published in patent US7879795B2, “Enhancement of tigecycline potency using efflux pump inhibitors” (Mpex Pharmaceuticals, Inc., priority 2004, dated 2011).

Columns and labels:
[1] = tested on: P. aeruginosa, PAM1723, overexpressing the MexAB-OprM efflux pump; assay: Levofloxacin potentiation checkerboard assay (broth microdilution); assay type: cell-based
Method: Stock solution was stored at −80° C.
The checkerboard assay was performed in microtiter plates. […] EPIs were diluted in the y axis, each row containing an equal concentration of an EPI. The result of these manipulations was that each well of the microtiter plate contains a unique combination of concentrations of the two agents. The assay was performed in MHB with a final bacterial inoculum of 5×10^5 CFU/ml (from an early-log phase culture). Microtiter plates were incubated during 20 h at 35° C. and were read using a microtiterplate reader (Molecular Devices) at 650 nm as well as visual observation using a microtiter plate-reading mirror.

[2] = In vitro stability in rat serum and tissue homogenates (LC/MS/MS); assay type: in vitro ADME
Method: To test the stability of the compounds in vitro, samples were prepared and analyzed by LC/MS/MS according to the following procedure.
Homogenization: A chunk of fresh tissue was weighed and mixed with saline at 1:1 ratio (w/v) in a 12×75 mm polypropylene round bottom tube. The mixture was homogenized with a Polytron homogenizer (on ice, 3×10 seconds with 10 second intervals at the setting of 7).
Incubation and TCA-precipitation: An appropriate amount of a tissue homogenate was pre-warmed at 37° C. for 2 minutes in an Eppendorf tube. The compound to be tested was added to the tube to a final concentration of 2 μg/ml, mixed, and a 60 μl aliquot was immediately taken (as 0 hour sample) and mixed with 120 μl of 4% TCA (trichloroacetic acid) in an Eppendorf tube. The temperature of the tube containing the rest of the tissue sample was returned to 37° C. for incubation. Later, samples were taken as scheduled and mixed with TCA as described above. Plasma and lavage samples were directly incubated with the compounds without addition of saline and homogenization.
LC/MS/MS sample vial preparation: TCA-precipitated sample tubes were vortexed for 30 seconds, centrifuged in a microfuge at top speed (13.2 k rpm) for 5 minutes. The supernatant was collected. The pH was neutralized to about 3.5 with ammonium acetate buffer. The sample (45 μl) was transferred to a glass LC/MS/MS vial (Kimble, 11 mm, 1.5 ml) and 5 μl of an internal standard was added to a final concentration of 500 ng/ml. LC/MS/MS analysis was performed in Chemistry Department of San Diego State University.
LC/MS/MS protocol: Thermo-Finnigan TSQ Quantum triple sector mass spectrometer with electrospray (ESI) ionization was used to analyze the samples. The operation conditions were: Mobile phase of pH 3.00 water/formic acid: acetonitrile-methanol (45%:5%:50% by volume); Thermo-Keystone Betabasic C-18 column (2.1 mm×50 mm) operated at 0.100 mL/min.
Many proteases responsible for degrading EPI compounds are located in […]. Lysozymes typically have an acidic pH (about 4.8-5), whereas the pH in tissue homogenates that were prepared was higher (kidney, pH 6.8; liver, pH 6.6; and lung, pH 7.5). To test the effect of tissue homogenates closer to physiological conditions, the pH was lowered to about 6 by adding acetic acid to the tissue homogenates and compound stability was tested. FIG. 2 depicts the stability of compounds 1 and 3 at different pH. […] The pH-dependent degradation of compound 3 was especially evident in kidney homogenates.
FIG. 4 is a bar graph depicting the stability of compound 3 in the supernatant and pellet of kidney tissue homogenates.

[3] = Tissue levels in rat six-hour after 8.4 mg/kg IV bolus; assay type: in vivo; details: rat kidney, liver and lung; 8.4 mg/kg IV bolus; in words
Method: Tissue levels of compounds 1, 2, 3 and 4 were evaluated in kidney, liver and lung six-hour after 8.4 mg/kg IV bolus administration. FIG. 13 depicts the levels as a function of time.
Compound 67, which is the expected metabolite of proteolytic intracellular degradation of compound 3, was detected in rat tissues after IV infusion, confirming the tissue-specific degradation of compound 3 (Tables 9A, B).

[4] = Rat serum pharmacokinetics after IV bolus administration; assay type: in vivo; details: in words
Method: Rat serum pharmacokinetics of compounds 1, 2, 3 and 4 was evaluated after IV bolus administration (FIG. 11). FIG. 11 depicts the serum concentrations as a function of time.

NCCC[C@H](N)C(=O)N[C@@H](CCc1ccccc1)C(=O)Nc1cnc2ccccc2c1 [Compound 2, 2-(S),5-Diamino-pentanoic acid [3-phenyl-1-(S)-(quinolin-3-ylcarbamoyl)-propyl]-amide]
Antibiotic (levofloxacin) MIC in the presence of EPI ([1]; EPI 0 μg/ml (levofloxacin alone)): 2 µg/mL | Antibiotic (levofloxacin) MIC in the presence of EPI ([1]; EPI 1.25 μg/ml): 2 µg/mL | Antibiotic (levofloxacin) MIC in the presence of EPI ([1]; EPI 5 μg/ml): 2 µg/mL | Antibiotic (levofloxacin) MIC in the presence of EPI ([1]; EPI 10 μg/ml): 1 µg/mL | Antibiotic (levofloxacin) MIC in the presence of EPI ([1]; EPI 20 μg/ml): 0.125 µg/mL | Antibiotic (levofloxacin) MIC in the presence of EPI ([1]; EPI 40 μg/ml): 0.06 µg/mL | Antibiotic (levofloxacin) MIC in the presence of EPI ([1]; EPI 80 μg/ml): 0.03 µg/mL | Antibiotic (levofloxacin) MIC in the presence of EPI ([1]; EPI […]): 2 µg/mL | MPC8 ([1]; EPI concentration necessary to increase susceptibility to levofloxacin eight-fold): 20 µg/mL | stability in rat serum ([2]; in words): intermediately stable | compound left in serum after 1.5 hr of incubation ([2]; rat serum): about half | compound left in serum after 4 hr ([2]; rat serum): almost all gone | compound left in kidney and liver after the first 40 minutes of incubation ([2]; rat tissue homogenates): Hardly any was left | stability in kidney and liver ([2]; rat tissue homogenates, in words): very unstable | tissue levels at 6 hours after IV injection [3]: below the detectable level | serum levels after IV bolus administration [4]: decreased more rapidly
